Laboratory results: the NIST ThermoML archive (doi:10.1016/j.jct.2019.03.035)

Assay: molar heat capacity at constant pressure; xn = mol fraction of the nth substance listed
Conditions: 100 kPa, Liquid, DSC, x1 = 0.53

N#Cc1ccccc1 [benzonitrile] + CCCCCCCCCC
Conditions | molar heat capacity at constant pressure [J/K/mol]
281.74 K | 261.8
281.89 K | 260.4
282.04 K | 262.8
282.19 K | 264
282.34 K | 264.4
282.48 K | 263.4
282.63 K | 264
282.78 K | 263.3
282.93 K | 263.9
283.08 K | 266.3
283.23 K | 265.2
283.38 K | 266.7
283.52 K | 266.3
283.67 K | 268.2
283.82 K | 266.5
283.97 K | 267.5
284.12 K | 266.6
284.26 K | 265.9
284.41 K | 266.6
284.56 K | 268
284.71 K | 266.6
284.86 K | 268.5
285.01 K | 265.8
285.16 K | 269.9
285.3 K | 270.2
285.45 K | 268.9
285.6 K | 269.8
285.75 K | 271.8
285.9 K | 271.1
286.05 K | 270.5
286.19 K | 273.2
286.34 K | 273.4
286.49 K | 278.6
286.64 K | 283.9
286.79 K | 282.2
286.94 K | 285.9
287.09 K | 285.2
287.23 K | 307.6
287.38 K | 254
287.53 K | 250.3
287.68 K | 248.6
287.83 K | 246.7
287.98 K | 247.4
288.12 K | 245.8
288.27 K | 246
288.42 K | 245.6
288.57 K | 244.9
288.72 K | 244.8
288.87 K | 244.5
289.01 K | 244.3
289.16 K | 243.6
289.31 K | 244.2
289.46 K | 243.9
289.61 K | 244.1
289.76 K | 243.4
289.9 K | 243.5
290.05 K | 243.5
290.2 K | 243.2
290.35 K | 243.1
290.5 K | 243.2
290.65 K | 243.1
290.83 K | 243
290.98 K | 241.8
291.13 K | 243
291.28 K | 243.4
291.43 K | 242.8
291.57 K | 242.5
291.72 K | 242.7
291.87 K | 242.8
292.02 K | 242.4
292.17 K | 242.1
292.32 K | 241.7
292.46 K | 242.5
292.61 K | 242.1
292.76 K | 241.7
292.91 K | 242.6
293.06 K | 242
293.21 K | 242.1
293.36 K | 242.4
293.5 K | 241.7
293.65 K | 242.3
293.8 K | 242.2
293.95 K | 242.1
294.1 K | 241.7
294.25 K | 241.9
294.39 K | 241.8
294.54 K | 242.1
294.69 K | 242.1
294.84 K | 242.3
294.99 K | 241.7
295.14 K | 242.2
295.29 K | 242.1
295.43 K | 241.7
295.58 K | 242
295.73 K | 242.1
295.88 K | 242.8
296.03 K | 242.1
296.18 K | 242.8
296.32 K | 242.2
296.47 K | 241.8
296.62 K | 241.1
